The values below come from paper PMC3671792 (Biochemical Journal, 2013).

One experiment concerns the target T1, ZmCK2α (Zea mays, UniProt P28523).
T1 construct: gene ACK2
The following applies: 25 uM ATP, 10 mM MgCl2, pH 7.5, 30 °C; labelled compound; GST-Rh2b phosphorylated, GST-AMA1 not.

The next experiment deals with T2, MmPKAc (Mus musculus, UniProt P05132).
T2 construct: gene Prkaca
Conditions: 25 uM ATP, 10 mM MgCl2, pH 7.5, 30 °C; labelled compound; GST-AMA1 phosphorylated, GST-Rh2b not.

The target of experiment [1] is T3, PfCK2 α (CK2–HA, immunoprecipitated) (Plasmodium falciparum, UniProt Q8IIR9).
T3 construct: gene PF3D7_1108400; full coding region with C-terminal 3xHA tag, overexpressed episomally (crt promoter) in 3D7 parasites, immunoprecipitated on anti-HA/Protein G beads, ~42 kDa band; endogenous beta1/beta2 subunits could co-precipitate
In words: phosphorylation of GST-Rh2b CPD by immunoprecipitated CK2-HA, phospho-specific Western blot. The class given is biochemical. Conditions: 25 uM ATP, 10 mM MgCl2, pH 7.5, 30 °C; protein substrate GST-Rh2b CPD; kinase on beads. For orientation: A western blot detects proteins with antibodies after separation by electrophoresis.

T1 sequence (P28523 whole entry): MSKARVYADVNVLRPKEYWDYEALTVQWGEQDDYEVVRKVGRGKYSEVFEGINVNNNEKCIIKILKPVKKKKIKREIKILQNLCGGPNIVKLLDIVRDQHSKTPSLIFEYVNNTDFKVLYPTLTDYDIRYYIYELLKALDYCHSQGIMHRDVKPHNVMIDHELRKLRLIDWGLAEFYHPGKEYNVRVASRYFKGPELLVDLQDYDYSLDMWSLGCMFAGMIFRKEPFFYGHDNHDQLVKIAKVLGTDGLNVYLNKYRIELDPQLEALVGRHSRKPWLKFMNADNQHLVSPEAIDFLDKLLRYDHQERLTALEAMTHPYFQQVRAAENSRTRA
T3 sequence (Q8IIR9 entry or part of it): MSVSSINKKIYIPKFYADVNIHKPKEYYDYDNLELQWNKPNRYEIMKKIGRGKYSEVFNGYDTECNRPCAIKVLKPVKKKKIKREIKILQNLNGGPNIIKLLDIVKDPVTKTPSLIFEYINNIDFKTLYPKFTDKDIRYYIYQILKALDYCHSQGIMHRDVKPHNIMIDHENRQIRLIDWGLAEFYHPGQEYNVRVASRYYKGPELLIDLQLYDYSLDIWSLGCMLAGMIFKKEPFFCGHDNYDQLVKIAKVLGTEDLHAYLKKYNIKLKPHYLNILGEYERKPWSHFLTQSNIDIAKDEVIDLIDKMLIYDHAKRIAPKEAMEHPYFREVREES

Consider `Nc1ncnc2c1ncn2[C@@H]1O[C@H](COP(=O)(O)OP(=O)(O)OP(=O)(O)O)[C@@H](O)[C@H]1O` [ATP], for which, on ZmCK2α, the “in vitro kinase assay with GST-Rh2b CPD, [γ-32P]ATP” value is on record as “the enzyme was able to phosphorylate GST–Rh2b”. Further, the “in vitro kinase assay with GST-AMA1 CPD, [γ-32P]ATP” value at MmPKAc was “Although MmPKAc phosphorylated AMA1–GST, it showed no reactivity against GST–Rh2b”.

As for `O=C(O)/C=C/c1cc(Br)c(Br)c(Br)c1Br` [TBCA], in experiment [1], the “inhibition (qualitative)” value was “sensitive to heparin treatment (Figure 4E) and to increasing amounts of TBCA (Figure 4F)”.
